Tests used:
5-lipoxygenase = target: T1, 5-lipoxygenase (Rattus norvegicus, UniProt P12527); experiment: Inhibition of 5-lipoxygenase in rat basophilic leukemia cells ([14C]-arachidonic acid, TLC); format: cell-based; conditions: for IC50: rat basophilic leukemia cells, standardized to nordihydroguaiaretic acid; for Quotient (IC50 cyclooxygenase (B) / 5-lipoxygenase (A)): selectivity
T1 construct: endogenous in cells; host or cells: rat basophilic leukemia cells
T1 sequence (P12527 1-673): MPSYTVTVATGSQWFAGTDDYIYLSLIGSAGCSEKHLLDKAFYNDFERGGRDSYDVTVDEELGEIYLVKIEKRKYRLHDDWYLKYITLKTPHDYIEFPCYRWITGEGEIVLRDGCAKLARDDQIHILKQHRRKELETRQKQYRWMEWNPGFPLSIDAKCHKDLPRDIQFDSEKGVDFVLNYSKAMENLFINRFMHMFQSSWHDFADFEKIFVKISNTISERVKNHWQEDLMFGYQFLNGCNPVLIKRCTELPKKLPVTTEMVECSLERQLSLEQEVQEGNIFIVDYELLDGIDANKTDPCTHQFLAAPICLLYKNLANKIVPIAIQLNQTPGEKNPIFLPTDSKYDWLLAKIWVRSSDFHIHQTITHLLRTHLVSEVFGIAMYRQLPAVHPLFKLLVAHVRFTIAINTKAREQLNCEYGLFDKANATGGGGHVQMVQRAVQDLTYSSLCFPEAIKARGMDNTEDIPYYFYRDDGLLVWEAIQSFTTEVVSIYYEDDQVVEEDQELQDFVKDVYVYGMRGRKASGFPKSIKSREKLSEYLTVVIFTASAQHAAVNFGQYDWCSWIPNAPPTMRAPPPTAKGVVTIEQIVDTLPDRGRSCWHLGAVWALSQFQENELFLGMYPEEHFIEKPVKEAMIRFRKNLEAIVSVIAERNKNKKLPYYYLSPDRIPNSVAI
Method: To 1 ml each of this suspension there was added indomethacin (10 μM) and calcium chlorid (2 mM) and then the mixture was incubated in presence or absence of a test compound for 3 minutes and thereafter with 20 μM of [^14 C]-arachidonic acid and 20 μM of the calcium ionophore A 23 187 for 10 minutes. The reaction was stopped by adding 20 μl of glacial acetic acid and then the mixture was extracted with ethyl acetate to isolate the metabolites of arachidonic acid formed by the enzymatic action of 5-lipoxygenase. These were separated by thin layer chromatography using a solvent mixture known to be suitable for leukotriene analysis [c.f. Jakschik et al., Biochem. Biophys. Res. Commun. 102, 624 (1981)]. The distribution of the radioactivity to the different metabolites was measured using a TLC Linear Analyzer. By bringing into relationship the percentages of the amount of the products formed under the action of 5-lipoxygenase (5-HETE, isomers of LTB4) in the controls (tests performed in absence of test compounds) and in the presence of test compounds of formula I in different concentrations the "IC50 -value" (i.e. the concentration of the test compound which causes an 50%-inhibition of the 5-lipoxygenase) is determined. For standardization these values then were brought into relationship to the IC50 -values determined in the same manner for the standard compound nordihydroguaiaretic acid.

cyclooxygenase = target: T2, cyclooxygenase (Ovis aries, UniProt P05979); experiment: Inhibition of cyclooxygenase in sheep seminal vesicle microsomes ([14C]-arachidonic acid, TLC); format: biochemical; conditions: pH 7.0, read-out: IC50 for inhibition of cyclooxygenase (B)
T2 construct: suspension of sheep seminal vesicle microsomes; from tissue; host or cells: sheep seminal vesicle microsomes
T2 sequence (P05979 25-600): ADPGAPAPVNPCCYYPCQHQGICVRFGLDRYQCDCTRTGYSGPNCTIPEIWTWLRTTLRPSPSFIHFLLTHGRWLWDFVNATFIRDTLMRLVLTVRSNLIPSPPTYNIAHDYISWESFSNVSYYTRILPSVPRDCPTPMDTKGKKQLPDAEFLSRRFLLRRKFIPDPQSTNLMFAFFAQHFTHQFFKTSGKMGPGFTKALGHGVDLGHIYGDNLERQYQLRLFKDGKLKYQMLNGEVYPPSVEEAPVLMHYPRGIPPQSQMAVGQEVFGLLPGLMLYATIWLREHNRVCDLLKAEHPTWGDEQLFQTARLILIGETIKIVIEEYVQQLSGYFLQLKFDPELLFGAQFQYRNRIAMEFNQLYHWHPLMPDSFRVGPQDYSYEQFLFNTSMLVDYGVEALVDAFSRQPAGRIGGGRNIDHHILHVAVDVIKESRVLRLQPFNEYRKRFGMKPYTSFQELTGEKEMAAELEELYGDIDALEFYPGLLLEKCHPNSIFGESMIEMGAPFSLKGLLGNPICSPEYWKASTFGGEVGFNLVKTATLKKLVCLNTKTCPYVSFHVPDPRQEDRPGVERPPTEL
Method: The effect of the test compounds on the activity of cyclooxygenase was tested using a suspension of sheep seminal vesicle microsomes in 50 mM potassium phosphate buffer of pH 7.0 which was incubated with the solvent only (as control) or with the test compound and [^14 C]-arachidonic acid. The "IC50 -values (B)" (i.e. the concentration of the test compound which causes an 50%-inhibition of the cyclooxygenase) were determined by thin layer chromatography and by means of a TLC-Linear-Analyzer.

[1] = test system: endotoxin/galactosamine-induced hepatitis, increase of liver specific enzymes in the serum; experiment: Endotoxin/galactosamine-induced hepatitis in mice (septic shock model); format: in vivo; conditions: 10 mg/kg i.p. for each of five applications, 8 hours after endotoxin
Method: As a test model to evaluate the effects of test compounds in septic shock the endotoxin/galactosamine-induced hepatitis in mice has been used. […] The intraperitoneal application of 5-lipoxygenase inhibitors 30 minutes before, simultaneously with and 2, 4 and 6 hours after the application of endotoxin inhibitis the hepatitis-induced increase of the serum activities of these enzymes. On administration of compounds of the formula I in doses of 10 mg/kg for each of the five applications the following percentual inhibitions of the increase of the enzymes GPT and SDH were achieved (the increase of enzymatic activities in control animals was set at 100%): […]

[2] = test system: ex vivo iLTB4-formation (5-lipoxygenase activity) in whole blood of rats; experiment: Inhibition of ex vivo iLTB4-formation in rat whole blood after oral administration; set-up: species or system male rats (Wistar strain)
Method: The bioavailability of the compounds of formula I after oral administration was characterized by means of an ex vivo biochemical assessment method described by Tateson et al. in Brit. Pharmacol., 94, 528 (1988).
Compounds of formula I were orally administered to male rats (Wistar strain). 1 hour later the rats were bled by heart puncture in letal CO2 -narcosis. The 5-lipoxygenase reaction was triggered by the addition of the calcium-ionophor A23187 to an end concentration of […] to aliquots of rat whole blood and subsequent incubation for 30 minutes at 37° C. in a water bath. At the end of the incubation the samples were centrifuged to collect the cell free plasma. The concentration of the immunoreactive LTB4 (iLTB4 ng/ml) in each plasma sample was determined by a LTB4 -radioimmunoassay (^3 H-LTB4 -RIA, Amersham) by means of a LTB4 -standard curve in diluted rat plasma. For calculation of the percent inhibition of ex vivo iLTB4 -formation in whole blood of rats treated with the compounds of formula I rats treated with appropiate vehicle solution were included in all experiments, aliquots of their blood were run in parallel and were processed in the same way as described. The mean iLTB4 -formation per ml plasma of these vehicle treated control rats served as 100 percent value of normal control 5-lipoxygenase activity. The percent inhibition of the ex vivo iLTB4 -formation after oral administration of compounds of formula I was calculated as follows: 100 minus 100 times the quotient of the mean iLTB4 concentration per ml plasma of the rats treated with compounds of formula I […] and the mean iLTB4 concentration per ml plasma of the control rats.

bronchoconstriction = experiment: Antiasthmatic activity: ovalbumin-induced bronchoconstriction in passively sensitized guinea pigs (Konzett-Rössler); format: in vivo; conditions: 100 mg/kg oral, 0.2 mg/kg i.v. ovalbumin challenge, 10 minutes
Method: The antiasthmatic activity of compounds of formula I was tested in narcotised and ventilated guinea pigs. For the induction of an asthmatic reaction, the animals were passively sensitized by a single intraperitoneal injection of anti-ovalbumin serum. 48 hours afterwards the asthmatic reaction was elicited by intravenous challenge with 0.2 mg/kg ovalbumin. The immediately resulting bronchoconstriction was measured as increase in overflow according to the Konzett-Rbssler method for a period of 10 minutes. Effects caused by histamine, serotonin and sympathic counterreaction were eliminated by intravenous pretreatment with 2.15 mg/kg mepyramine, 46.4 μg/kg propranolol, 4.64 mg/kg atropin and 1 mg/kg methysergide, all given 5 minutes before challenge.
After oral administration of the product of Example 5a or of the product of Example 9, in doses of 100 mg/kg each, the bronchoconstriction was inhibited by 54% or by 67%, respectively.

Row | Structure (SMILES) | IC50 (5-lipoxygenase) [nM] | Quotient (IC50 cyclooxygenase (B) / 5-lipoxygenase (A)) (5-lipoxygenase) | IC50 (cyclooxygenase) [nM] | Inhibition of increase of GPT [1] [%] | Inhibition of increase of SDH [1] [%] | inhibition of the ex vivo iLTB4-formation ([2]; 10 mg/kg oral) [%] | inhibition of bronchoconstriction (bronchoconstriction) [%] | inhibition in vivo at 21.5 mg/kg ([2]; Rattus norvegicus, 21.5 mg/kg oral, blood taken 1 hour later) [%]
1 | CC(=O)N(O)Cc1cccc(C#Cc2ccc3ccccc3c2)c1 [Example 1, N-[3-(Naphth-2-yl-ethynyl)-benzyl]-acetohydroxamic acid] | 670 | > 746 | > 500000 | 47 | 58 | – | – | –
2 | COc1ccc(C#Cc2cccc(C(C)N(O)C(N)=O)c2)cc1 (centres unmarked) [Example 9, N-Hydroxy-N-{1-[3-(4-methoxy-phenylethynyl)-phenyl]-ethyl}-urea] | 150 | 667 | 100000 | 94 | 90 | 86 | 67 | –
3 | COc1ccc(C#Cc2cccc(C(C)N(O)C(C)=O)c2)cc1 (centres unmarked) [Example 5a] | 290 | 1517 | 440000 | – | – | – | 54 | 75
